The text below walks through data of US9102648B1, “Bioavailable diacylhydrazine ligands for modulating the expression of exogenous genes via an ecdysone receptor complex” (Intrexon Corporation, priority 2003, dated 2015).

One data set relates to Caco-2 monolayers. Put plainly: Bi-directional permeability, CACO-2. In kind it is in vitro ADME. As to the method: (§1) Caco-2 monolayers were grown to confluence on collagen-coated, microporous, polycarbonate membranes in 12-well Costar Transwell plates. Details of the plates and their certification are shown below. The permeability assay buffer was Hank's Balanced Salt Solution containing 10 mM HEPES and 15 mM glucose at a pH of 7.0±0.2. The dosing solution concentration was 10 μM in assay buffer. At each time point, 1 and 2 hours, a 200-μL aliquot was taken from the receiver chamber and replaced with fresh assay buffer. Cells were dosed on the apical side (A-to-B) or basolateral side (B-to-A) and incubated at 37° C. with 5% CO2 and 90% relative humidity. Each determination was performed in duplicate. The important experimental parameters are outlined below. Permeability through a cell-free (blank) membrane was studied to determine non-specific binding and free diffusion of the compound through the device. Lucifer yellow flux was also measured for each monolayer after being subjected to the test compounds to ensure no damage was inflicted to the cell monolayers during the flux period.
(§2) All samples were assayed by LC/MS using electrospray ionization. Typical LC/MS conditions are as follows:
(§3) dCr/dt is the cumulative concentration in the receiver compartment versus time in M s^−1.
(§4) Vr is the volume of the receiver compartment in cm^3.
(§5) Vd is the volume of the donor compartment in cm^3.
(§6) A is the area of the cell monolayer (1.13 cm^2 for 12-well Transwell).
(§7) C0 is the concentration of the dosing solution in M.
(§8) Cr^final is the cumulative receiver concentration in M at the end of the incubation period.
(§9) Cd^final is the concentration of the donor in M at the end of the incubation period.
On the technique in general: Caco-2 monolayers are a common model of the intestinal barrier.

The nature of data set [1]: Partition coefficient Log (D), 1-octanol / pH 7.4 buffer. In kind it is physicochemical. The method, then: The partition coefficient, Log (D), between water-saturated 1-octanol and pH 7.4 buffer was determined for the test compounds. The buffer was prepared as described in section 2. A 12 μl aliquot of a 10 mM stock solution in DMSO was introduced to a vial containing 0.60 mL of octanol and 0.60 mL of buffer at room temperature. Testosterone was also added to a final concentration of 100 μM as an internal control. The solution was vortexed for 60 minutes and centrifuged at 10,000 rpm for 10 minutes. The organic and aqueous layers were removed. Serial dilutions of the organic layer were made with 50% methanol except for the initial dilution, which was made in 100% methanol. Serial dilutions of the aqueous layer were made in the pH 7.4 buffer. The diluted samples were then assayed by LC/MS for the compound as well as for testosterone. The Log of the ratio of peak area responses was calculated to obtain the Log (D). Typical Log D values for testosterone are from 3.0-3.3.

A short description of data set [2]: Aqueous equilibrium solubility in pH 7.4 buffer. To be noted: pH 7.4 aqueous buffer, room temperature, equilibrium.
Method: Equilibrium solubility was measured in pH 7.4 aqueous buffer. The buffer was prepared by adjusting the pH of a 0.07 M solution of NaH2PO4 to pH 7.4 with 10 N NaOH. […] At least 1 mg of powder was combined with 1 mL of buffer to make >1 mg/mL mixture. These samples were shaken for ≧2 hours and left to stand overnight at room temperature. The samples were then filtered through a 0.45-μm Nylon syringe filter that was first saturated with the sample. The filtrate was sampled twice, consecutively. The filtrate was assayed by HPLC against standards prepared in methanol.
Data set [3] concerns the target T1, Bombyx mori EcR (VP16 fusion, CVBE switch construct) (Bombyx mori, UniProt P49881).
T1 sequence (P49881 86-606): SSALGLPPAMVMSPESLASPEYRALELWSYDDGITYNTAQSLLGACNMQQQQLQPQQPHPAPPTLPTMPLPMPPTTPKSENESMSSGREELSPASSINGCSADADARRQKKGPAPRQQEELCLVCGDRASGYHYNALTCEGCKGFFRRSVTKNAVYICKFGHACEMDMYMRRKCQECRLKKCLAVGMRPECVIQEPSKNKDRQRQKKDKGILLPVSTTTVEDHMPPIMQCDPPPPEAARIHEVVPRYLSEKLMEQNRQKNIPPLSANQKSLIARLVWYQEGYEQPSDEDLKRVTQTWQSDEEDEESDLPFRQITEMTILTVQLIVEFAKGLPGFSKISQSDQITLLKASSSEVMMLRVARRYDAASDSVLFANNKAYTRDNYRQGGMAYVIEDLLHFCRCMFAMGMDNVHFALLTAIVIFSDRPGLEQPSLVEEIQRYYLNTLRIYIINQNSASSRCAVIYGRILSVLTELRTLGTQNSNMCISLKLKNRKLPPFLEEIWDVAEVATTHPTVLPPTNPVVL
T1 sequence (P19793 1-462 partner): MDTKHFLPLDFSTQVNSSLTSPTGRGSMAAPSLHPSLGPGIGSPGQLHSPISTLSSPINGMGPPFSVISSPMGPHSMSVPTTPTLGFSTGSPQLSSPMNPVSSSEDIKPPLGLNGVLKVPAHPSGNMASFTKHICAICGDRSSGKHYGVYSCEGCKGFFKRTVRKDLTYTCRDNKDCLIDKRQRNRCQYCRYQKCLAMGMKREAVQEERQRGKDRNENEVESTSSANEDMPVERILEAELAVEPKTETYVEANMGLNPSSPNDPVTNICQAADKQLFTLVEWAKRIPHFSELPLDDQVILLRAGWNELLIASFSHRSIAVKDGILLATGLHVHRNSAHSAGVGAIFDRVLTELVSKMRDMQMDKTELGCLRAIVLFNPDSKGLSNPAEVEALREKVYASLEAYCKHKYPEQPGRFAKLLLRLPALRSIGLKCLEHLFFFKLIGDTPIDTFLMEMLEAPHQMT
Put plainly: Z3 Assay (HEK-293 cells with CVBE and 6XEcRE LacZ, β-galactosidase reporter).

Data set [4] in a line: Determination of LC Log P (experimental). The class given is physicochemical. The note with it: diacylhydrazine log P standards (log P known experimentally). As to the method: Liquid chromatography retention times (RT) are measured for each substance using the conditions described below. A linear equation is derived relating RT to log P is developed from the data for the log P standards. The log P for the test compound is calculated from the log P/retention time equation.

Data set [5] is described as follows: Bi-directional permeability, CACO-2. In kind it is in vitro ADME. To be noted: human, Caco-2, Papp × 10^−6 cm/s (plate certification). The method, then:
as §1, §2, §3, §4, §5, §6, §7, §8, §9

Data set [6] addresses GAL4 DBD (1-147)-CfEcR(DEF)/VP16AD-βRXREF-LmUSPEF (Choristoneura fumiferana, UniProt O77240). Put plainly: cell-based. To be noted: for 27-63 assay Rel Max FI: maximum fold induction at any concentration relative to that of GS-E ligand, CHO 27-63 cells; for fold induction at 33 µM: read-out: Fold Induction, 27-63 Assay, 33 uM.
Data set [7] has as its system mutated ecdysone receptor-based gene switch. Put plainly: In vivo SEAP induction, ligand by IP injection. Further details: species or system C57BL/6 mouse. To be noted: IP 26 nmol ligand. The method, then: Applicants' ligands are useful in various applications including gene therapy, expression of proteins of interest in host cells, production of transgenic organisms, and cell-based assays. In vivo induction of a reporter enzyme with various ligands of the present invention was evaluated in a C57BL/6 mouse model system containing a gene switch.
Each element of the gene switch was on a separate plasmid. Receptor expression was under the control of a CMV promoter (SEQ ID NO: 15). Induction was evaluated by the amount of reporter protein expressed in the presence of ligand.
SEAP expression in serum of mice was evaluated after electroporation of the gene switch into mouse quadriceps. Mice were anesthetized with 2 μL/g of a mixture of ketamine (100 mg/mL) and xylazine (20 mg/mL). Animals were then shaved, DNA vectors injected into the muscle in a volume of 2×50 μL polyglutamic acid (12 mg/mL water), electrode conductivity gel applied, and an electrode caliber (1 cm×1 cm; model 384) was placed on hind leg. The muscle was electroporated with 200 V/cm, 8 times, for 20 msec/pulse, at 1 sec time intervals. The transverse electrical field direction was reversed after the animals received half of the pulses. Electroporation was performed with an ECM 830 electroporator from BTX Molecular Delivery Systems.
In some experiments mice received an intraperitoneal injection (IP) of 2.6 μmol of ligand in 50 μL of DMSO 3 days after electroporation of the gene switch. In other experiments the concentration of ligand was decrease to 26 nmol/50 μL of DMSO/mouse. SEAP expression was evaluated 2-11 days after ligand administration. In other experiments ligand was administered in rodent chow. The chow was prepared by dissolving 2 g of ligand in 20 mL of acetone and adding it to 1 kg of LabDiet 5010 autoclavable chow from Purina Mills. This was thoroughly mixed in a Hobart mixer and then mixed for an additional 15 min in a Cross Blend mixer. Animals received chow ad libitum for 1, 2, or 3 days. All values are the average from four animals. Background SEAP in sera from animals treated with vector alone without ligand addition was 0-11 ng/mL serum.
Mouse serum was obtained by centrifugation of blood acquired by retroorbital bleeding with a small glass capillary tube. SEAP quantification was determined using a Clontech Great Escape chemiluminescence kit and by comparison with the Clontech SEAP standard.
Table 9: In vivo evaluation of ligand-mediated induction of a mutated ecdysone receptor-based gene switch. SEAP expression in serum of mice was evaluated after electroporation of the gene expression cassettes into mouse quadriceps. Mice received an IP injection of 2.6 μmol of ligand 3 days after electroporation. SEAP expression was evaluated 2-11 days after ligand administration. Each dose group was composed of four animals. Percentage of GS™-E ligand induction was determined by averaging SEAP expression from four animals divided by the average SEAP expression induced with GS™-E ligand and then multiplying by 100.
Table 10: Induction of gene switch expression with low concentrations of ligand. SEAP expression in serum of mice was evaluated after electroporation of the gene expression cassettes into mouse quadriceps. Mice received an IP injection of 26 nmol of ligand or 130 nmol GS™-E ligand 3 days after electroporation. SEAP expression was evaluated 2-7 days after ligand administration. Values are the average from 4 animals.

What is called EC50 is the concentration needed to bring the measured effect to its halfway point. Regarding `CCc1c(OC)cccc1C(=O)NN(C(=O)c1ccccc1[S+](C)[O-])C(C)(C)C` (centres unmarked) [RG-115199], in the data set with Caco-2 monolayers (Caco-2), the “Papp Blank” value is 23.0 10^−6 cm/s; the “Papp, A-to-B Avg” value was 30.6 10^−6 cm/s; the “Papp, A-to-B Rep. 1” value is recorded as 31.1 10^−6 cm/s; the “Papp, A-to-B Rep. 2” value is given as 30.2 10^−6 cm/s. Besides, in the data set on Caco-2 monolayers (Caco-2), the “Papp, B-to-A Avg” value is 30.9 10^−6 cm/s; the “Papp, B-to-A Rep. 1” value is recorded as 31.0 10^−6 cm/s; the “Papp, B-to-A Rep. 2” value is given as 30.9 10^−6 cm/s; the “Significant Efflux” value was “No”. Besides, the “Papp B-A / Papp A-B Ratio” value with Caco-2 monolayers (Caco-2 efflux ratio) came out at 1.0. Further, the “Log(D) Octanol/pH 7.4” value in data set [1] (water-saturated 1-octanol / pH 7.4 buffer, room temperature) is recorded as 2.0. Further, in data set [2], the “Solubility pH 7.4” value is listed as 0.0064 mg/mL. Further, in data set [3] (3.3 uM ligand, ligand treated / DMSO treated cells, average of two wells), the “Fold Induction, Z3 Assay, 3.3 uM” value worked out at 349. For the same compound, the “Z3 assay Rel Max FI” value in data set [3] (maximum fold induction at any concentration relative to that of GS-E ligand, HEK-293 Z3 cells) turned out to be 0.734. Further, the EC50 in data set [3] (read-out: Z3 assay EC50, HEK-293 Z3 cells, β-galactosidase reporter, average of two wells) worked out at 3470 nM.

What is called logP is the decadic logarithm of the partition coefficient of the neutral form, usually between octanol and water. A higher logP goes with higher lipophilicity. In the case of `Cc1cc(C)cc(C(=O)N(NC(=O)c2cccc(O)c2C)C(C)(C)C)c1` [RG-102208, reference compound], the logP in data set [4] came out at 2.9.

As to `C[C@]12CC[C@H]3[C@@H](CCC4=CC(=O)CC[C@@]43C)[C@@H]1CC[C@@H]2O` [testosterone, Testosterone, reference compound], the logD in data set [1] (internal control, octanol / pH 7.4 buffer, read-out: Typical Log D values) was in the range of 3 to 3.3.

As a reminder, the Papp is a coefficient for how fast a substance crosses the barrier. High values mean ready permeation, low ones poor permeation. For `CC(C)NCC(O)COc1cccc2ccccc12` (centres unmarked) [Propranolol, reference compound], the “Papp × 10^−6 cm/s (plate certification)” value in the data set with Caco-2 monolayers (human, Caco-2) is recorded as 19 10^−6 cm/s. In data set [5], this compound yielded an apparent permeability (Papp) of 20 ×10⁻⁶ cm/s.

Take Lucifer Yellow [reference compound]: the “Papp × 10^−6 cm/s (plate certification)” value in the data set with Caco-2 monolayers (Caco-2 plate TW12, first certification column (seed date Jun. 11, 2002)) is 0.14 10^−6 cm/s; with Caco-2 monolayers (Caco-2 plate TW12, second certification column (seed date Jun. 18, 2002)) it was 0.12 10^−6 cm/s.

The compound `CCc1c(C(=O)NN(C(=O)c2ccc(F)cc2Cl)C(C)(C)C)ccc2c1OCOC2` [RG-115002, reference compound] registered a log partition coefficient (logP) in data set [4] of 3.5.

As to `CCC(N(NC(=O)c1ccc2c(c1C)OCCO2)C(=O)c1cc(C)cc(C)c1)C(C)(C)C` (centres unmarked) [RG-115856, 3,5-Dimethyl-benzoic acid N-(1-ethyl-2,2-dimethyl-propyl)-N′-(5-methyl-2,3-dihydro-benzo[1,4]dioxine-6-carbonyl)-hydrazide], in data set [6], the EC50 was 3 nM, the “27-63 assay Rel Max FI” value was found to be 0.879 and the fold induction at 33 µM is 1760. In addition, in data set [7], the “Secreted Alkaline Phosphatase Day 2” value is given as 2,292 ng/ml mouse sera and the “Secreted Alkaline Phosphatase Day 3” value was 2,350 ng/ml mouse sera.

Turning to `CCC(N(NC(=O)c1ccc2c(c1C)OCCO2)C(=O)c1cc(OC)c(C)c(OC)c1)C(C)(C)C` (centres unmarked) [RG-115857, 3,5-Dimethoxy-4-methyl-benzoic acid N-(1-ethyl-2,2-dimethyl-propyl)-N′-(5-methyl-2,3-dihydro-benzo[1,4]dioxine-6-carbonyl)-hydrazide], in data set [6], the EC50 was 13 nM, the “27-63 assay Rel Max FI” value is 1.140 and the fold induction at 33 µM is 328. Moreover, in data set [7], the “Secreted Alkaline Phosphatase Day 2” value turned out to be 574 ng/ml mouse sera and the “Secreted Alkaline Phosphatase Day 3” value was found to be 401 ng/ml mouse sera.

For `CCc1ccc(C(=O)NN(C(=O)c2cc(Cl)cc(Cl)c2)C(C)(C)C)c(F)c1` [RG-115372, reference compound], the logP in data set [4] stood at 5.02.
